According to PMC7026418, “The kinase polypharmacology landscape of clinical PARP inhibitors” (Scientific Reports, 2020):
Like-named read-outs stand apart in the source and are kept apart here.

How the values were obtained:
Test in all cases: biochemical
Set-up in all cases: DiscoveRx KINOMEscan active site-directed competition binding; percent of control kinase bound to immobilised ligand
AAK1 = AAK1 (Homo sapiens, UniProt Q2M2I8)
WEE1 = WEE1 (Homo sapiens, UniProt P30291)
DAPK2 = DAPK2 (Homo sapiens, UniProt Q9UIK4)
DAPK2, sequence (Q9UIK4 whole entry): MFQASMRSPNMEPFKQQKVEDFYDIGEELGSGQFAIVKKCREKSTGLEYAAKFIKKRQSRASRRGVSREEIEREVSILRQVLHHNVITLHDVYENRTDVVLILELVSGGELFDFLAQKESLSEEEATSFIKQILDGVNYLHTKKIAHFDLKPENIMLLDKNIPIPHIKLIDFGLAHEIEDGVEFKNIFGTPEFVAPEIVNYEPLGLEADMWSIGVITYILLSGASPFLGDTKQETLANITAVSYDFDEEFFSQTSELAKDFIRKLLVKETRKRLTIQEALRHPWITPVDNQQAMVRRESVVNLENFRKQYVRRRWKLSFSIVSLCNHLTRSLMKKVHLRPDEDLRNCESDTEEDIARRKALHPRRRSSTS

PIK3CA = PIK3CA (Homo sapiens, UniProt P42336)
SGK3 = molecular target: T1, SGK3 (Homo sapiens, UniProt Q96BR1)
T1 sequence (Q96BR1 1-496): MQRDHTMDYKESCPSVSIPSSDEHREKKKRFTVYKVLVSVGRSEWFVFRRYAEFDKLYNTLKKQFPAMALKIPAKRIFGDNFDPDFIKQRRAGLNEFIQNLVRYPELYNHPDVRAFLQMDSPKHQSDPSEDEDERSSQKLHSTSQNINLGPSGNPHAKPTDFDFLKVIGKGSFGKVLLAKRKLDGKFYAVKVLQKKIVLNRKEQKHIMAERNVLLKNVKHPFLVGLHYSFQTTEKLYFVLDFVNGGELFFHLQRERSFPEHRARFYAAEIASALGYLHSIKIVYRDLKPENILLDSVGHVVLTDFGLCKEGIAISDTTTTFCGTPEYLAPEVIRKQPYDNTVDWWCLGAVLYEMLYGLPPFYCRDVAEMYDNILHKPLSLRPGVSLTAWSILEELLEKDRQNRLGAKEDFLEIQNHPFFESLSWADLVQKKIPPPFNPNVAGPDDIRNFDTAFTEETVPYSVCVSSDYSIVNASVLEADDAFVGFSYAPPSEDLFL

TRPM6 = TRPM6 (Homo sapiens, UniProt Q9BX84)
TRPM6, sequence (Q9BX84 whole entry): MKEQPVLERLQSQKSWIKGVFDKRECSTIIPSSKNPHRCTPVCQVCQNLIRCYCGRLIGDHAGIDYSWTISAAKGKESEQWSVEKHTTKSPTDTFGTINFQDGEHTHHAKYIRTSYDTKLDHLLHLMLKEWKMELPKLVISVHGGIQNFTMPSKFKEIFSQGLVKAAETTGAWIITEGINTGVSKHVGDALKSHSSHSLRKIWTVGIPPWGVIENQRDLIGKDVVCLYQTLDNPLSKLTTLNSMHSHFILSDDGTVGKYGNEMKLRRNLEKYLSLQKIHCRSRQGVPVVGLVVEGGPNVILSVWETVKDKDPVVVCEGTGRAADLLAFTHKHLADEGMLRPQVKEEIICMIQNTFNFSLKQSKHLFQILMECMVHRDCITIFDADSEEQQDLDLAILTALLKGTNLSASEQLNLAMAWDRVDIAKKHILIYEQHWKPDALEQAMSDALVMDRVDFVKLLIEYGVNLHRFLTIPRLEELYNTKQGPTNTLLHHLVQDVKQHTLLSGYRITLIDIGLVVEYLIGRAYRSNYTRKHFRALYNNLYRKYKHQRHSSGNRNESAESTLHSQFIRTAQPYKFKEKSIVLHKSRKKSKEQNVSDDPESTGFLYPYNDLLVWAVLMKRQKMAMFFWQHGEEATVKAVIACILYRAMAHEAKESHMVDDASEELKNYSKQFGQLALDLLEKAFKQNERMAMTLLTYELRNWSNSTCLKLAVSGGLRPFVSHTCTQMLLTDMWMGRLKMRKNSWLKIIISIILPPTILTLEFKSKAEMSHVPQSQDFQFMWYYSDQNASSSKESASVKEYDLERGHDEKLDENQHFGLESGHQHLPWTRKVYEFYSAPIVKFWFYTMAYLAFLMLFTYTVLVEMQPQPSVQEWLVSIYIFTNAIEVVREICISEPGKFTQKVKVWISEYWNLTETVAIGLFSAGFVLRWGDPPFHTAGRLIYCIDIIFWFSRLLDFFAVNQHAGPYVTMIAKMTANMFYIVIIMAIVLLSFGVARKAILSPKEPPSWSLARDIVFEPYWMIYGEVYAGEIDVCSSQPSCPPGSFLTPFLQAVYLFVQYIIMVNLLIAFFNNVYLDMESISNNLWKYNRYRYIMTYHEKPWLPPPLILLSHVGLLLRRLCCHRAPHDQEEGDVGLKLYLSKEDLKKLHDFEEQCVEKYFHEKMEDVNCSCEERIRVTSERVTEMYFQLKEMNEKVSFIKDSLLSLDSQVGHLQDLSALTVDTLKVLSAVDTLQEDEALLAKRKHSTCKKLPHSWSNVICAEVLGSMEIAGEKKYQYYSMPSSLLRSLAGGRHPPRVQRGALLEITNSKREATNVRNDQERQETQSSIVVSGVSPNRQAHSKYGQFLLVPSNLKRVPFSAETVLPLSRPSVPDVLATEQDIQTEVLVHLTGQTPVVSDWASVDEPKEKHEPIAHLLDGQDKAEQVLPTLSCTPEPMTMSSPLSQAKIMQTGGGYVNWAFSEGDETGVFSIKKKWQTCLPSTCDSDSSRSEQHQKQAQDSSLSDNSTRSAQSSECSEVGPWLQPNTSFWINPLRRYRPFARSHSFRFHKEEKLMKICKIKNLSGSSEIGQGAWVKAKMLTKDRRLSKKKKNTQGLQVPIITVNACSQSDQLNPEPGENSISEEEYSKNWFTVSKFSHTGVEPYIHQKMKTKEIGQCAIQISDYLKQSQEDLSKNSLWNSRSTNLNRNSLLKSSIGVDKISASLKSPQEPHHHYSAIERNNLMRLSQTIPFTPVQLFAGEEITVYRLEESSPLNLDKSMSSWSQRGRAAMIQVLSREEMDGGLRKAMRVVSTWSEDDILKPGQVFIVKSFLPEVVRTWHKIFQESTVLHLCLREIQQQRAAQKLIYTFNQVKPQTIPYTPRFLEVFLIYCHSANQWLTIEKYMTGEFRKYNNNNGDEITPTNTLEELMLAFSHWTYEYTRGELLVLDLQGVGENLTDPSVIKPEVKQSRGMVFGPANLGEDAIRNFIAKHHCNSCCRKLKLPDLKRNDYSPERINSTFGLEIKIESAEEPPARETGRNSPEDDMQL

FLT4 = FLT4 (Homo sapiens, UniProt P35916)
FLT4, sequence (P35916 whole entry): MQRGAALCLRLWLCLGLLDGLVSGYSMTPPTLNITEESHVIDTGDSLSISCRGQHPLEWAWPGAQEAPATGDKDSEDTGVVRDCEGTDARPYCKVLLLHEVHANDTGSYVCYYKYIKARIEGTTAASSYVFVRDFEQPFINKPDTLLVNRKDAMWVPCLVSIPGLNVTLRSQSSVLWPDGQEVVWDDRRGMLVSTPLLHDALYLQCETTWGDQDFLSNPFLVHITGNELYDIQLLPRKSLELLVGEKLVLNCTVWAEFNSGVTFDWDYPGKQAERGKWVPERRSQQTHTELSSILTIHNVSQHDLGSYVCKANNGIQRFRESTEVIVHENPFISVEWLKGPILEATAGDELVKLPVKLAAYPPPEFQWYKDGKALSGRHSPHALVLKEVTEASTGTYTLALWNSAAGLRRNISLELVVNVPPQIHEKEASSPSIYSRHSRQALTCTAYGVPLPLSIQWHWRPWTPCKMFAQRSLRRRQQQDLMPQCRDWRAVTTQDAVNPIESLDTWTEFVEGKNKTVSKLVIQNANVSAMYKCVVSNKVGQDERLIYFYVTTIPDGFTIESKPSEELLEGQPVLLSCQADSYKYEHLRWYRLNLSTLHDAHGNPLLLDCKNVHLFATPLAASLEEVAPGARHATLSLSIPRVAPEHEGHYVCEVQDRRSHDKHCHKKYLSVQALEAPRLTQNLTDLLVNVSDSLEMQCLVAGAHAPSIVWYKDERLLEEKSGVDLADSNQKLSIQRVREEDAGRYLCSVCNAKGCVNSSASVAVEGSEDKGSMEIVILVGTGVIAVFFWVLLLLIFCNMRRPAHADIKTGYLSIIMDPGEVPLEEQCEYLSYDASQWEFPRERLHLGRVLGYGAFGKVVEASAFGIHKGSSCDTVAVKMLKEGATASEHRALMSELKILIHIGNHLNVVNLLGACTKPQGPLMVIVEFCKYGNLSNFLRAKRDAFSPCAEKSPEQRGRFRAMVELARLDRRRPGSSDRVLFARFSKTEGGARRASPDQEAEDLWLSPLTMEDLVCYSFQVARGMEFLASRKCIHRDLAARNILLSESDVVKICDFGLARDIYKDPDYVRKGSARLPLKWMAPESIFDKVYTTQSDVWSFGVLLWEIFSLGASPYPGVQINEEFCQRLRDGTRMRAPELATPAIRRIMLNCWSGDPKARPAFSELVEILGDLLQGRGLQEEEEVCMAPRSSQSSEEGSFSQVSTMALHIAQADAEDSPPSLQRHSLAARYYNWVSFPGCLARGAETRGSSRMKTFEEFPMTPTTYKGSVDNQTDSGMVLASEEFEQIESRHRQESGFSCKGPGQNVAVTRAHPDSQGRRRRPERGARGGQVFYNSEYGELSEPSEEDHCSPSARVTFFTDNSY

STK36 = molecular target: T2, STK36 (Homo sapiens, UniProt Q9NRP7)
T2 sequence (Q9NRP7 1-1315): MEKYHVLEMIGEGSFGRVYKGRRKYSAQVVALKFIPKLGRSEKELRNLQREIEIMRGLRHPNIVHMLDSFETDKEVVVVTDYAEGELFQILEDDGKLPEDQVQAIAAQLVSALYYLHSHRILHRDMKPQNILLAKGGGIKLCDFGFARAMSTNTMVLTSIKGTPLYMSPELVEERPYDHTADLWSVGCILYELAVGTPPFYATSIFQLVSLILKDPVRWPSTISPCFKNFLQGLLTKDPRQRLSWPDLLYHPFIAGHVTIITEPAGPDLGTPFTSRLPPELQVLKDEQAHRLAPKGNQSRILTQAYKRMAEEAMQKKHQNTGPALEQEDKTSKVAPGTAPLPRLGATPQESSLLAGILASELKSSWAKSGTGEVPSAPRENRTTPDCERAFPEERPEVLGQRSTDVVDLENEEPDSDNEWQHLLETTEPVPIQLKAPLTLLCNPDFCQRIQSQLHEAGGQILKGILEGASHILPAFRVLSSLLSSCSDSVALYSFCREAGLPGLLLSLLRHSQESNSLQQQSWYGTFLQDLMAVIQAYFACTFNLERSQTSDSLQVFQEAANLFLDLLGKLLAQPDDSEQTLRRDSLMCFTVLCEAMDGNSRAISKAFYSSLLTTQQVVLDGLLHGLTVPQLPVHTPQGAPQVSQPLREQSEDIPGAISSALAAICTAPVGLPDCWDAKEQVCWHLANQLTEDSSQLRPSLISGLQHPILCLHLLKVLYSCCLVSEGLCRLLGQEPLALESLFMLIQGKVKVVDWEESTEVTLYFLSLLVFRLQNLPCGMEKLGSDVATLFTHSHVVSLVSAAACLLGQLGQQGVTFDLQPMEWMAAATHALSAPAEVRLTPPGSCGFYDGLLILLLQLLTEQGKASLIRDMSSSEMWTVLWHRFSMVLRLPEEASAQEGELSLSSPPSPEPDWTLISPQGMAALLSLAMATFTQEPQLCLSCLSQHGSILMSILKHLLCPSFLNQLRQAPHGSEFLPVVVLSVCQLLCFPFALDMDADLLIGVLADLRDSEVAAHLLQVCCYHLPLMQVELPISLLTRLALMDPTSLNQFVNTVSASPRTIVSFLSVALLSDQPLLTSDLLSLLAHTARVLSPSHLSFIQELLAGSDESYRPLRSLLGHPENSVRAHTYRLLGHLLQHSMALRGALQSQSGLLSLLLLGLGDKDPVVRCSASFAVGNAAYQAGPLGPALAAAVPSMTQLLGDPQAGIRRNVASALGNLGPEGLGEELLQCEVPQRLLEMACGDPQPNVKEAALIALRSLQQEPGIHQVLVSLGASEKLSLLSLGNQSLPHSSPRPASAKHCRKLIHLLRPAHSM

[1] = read-out: Niraparib (MK-4827) / %Ctrl @ 10000nM
[2] = read-out: Olaparib / %Ctrl @ 10000nM
[3] = read-out: Rucaparib / %Ctrl @ 10000nM, binding competition, % of control
[4] = read-out: Talazoparib (BMN 673) / %Ctrl @ 10000nM

AAK1, sequence (Q2M2I8 whole entry): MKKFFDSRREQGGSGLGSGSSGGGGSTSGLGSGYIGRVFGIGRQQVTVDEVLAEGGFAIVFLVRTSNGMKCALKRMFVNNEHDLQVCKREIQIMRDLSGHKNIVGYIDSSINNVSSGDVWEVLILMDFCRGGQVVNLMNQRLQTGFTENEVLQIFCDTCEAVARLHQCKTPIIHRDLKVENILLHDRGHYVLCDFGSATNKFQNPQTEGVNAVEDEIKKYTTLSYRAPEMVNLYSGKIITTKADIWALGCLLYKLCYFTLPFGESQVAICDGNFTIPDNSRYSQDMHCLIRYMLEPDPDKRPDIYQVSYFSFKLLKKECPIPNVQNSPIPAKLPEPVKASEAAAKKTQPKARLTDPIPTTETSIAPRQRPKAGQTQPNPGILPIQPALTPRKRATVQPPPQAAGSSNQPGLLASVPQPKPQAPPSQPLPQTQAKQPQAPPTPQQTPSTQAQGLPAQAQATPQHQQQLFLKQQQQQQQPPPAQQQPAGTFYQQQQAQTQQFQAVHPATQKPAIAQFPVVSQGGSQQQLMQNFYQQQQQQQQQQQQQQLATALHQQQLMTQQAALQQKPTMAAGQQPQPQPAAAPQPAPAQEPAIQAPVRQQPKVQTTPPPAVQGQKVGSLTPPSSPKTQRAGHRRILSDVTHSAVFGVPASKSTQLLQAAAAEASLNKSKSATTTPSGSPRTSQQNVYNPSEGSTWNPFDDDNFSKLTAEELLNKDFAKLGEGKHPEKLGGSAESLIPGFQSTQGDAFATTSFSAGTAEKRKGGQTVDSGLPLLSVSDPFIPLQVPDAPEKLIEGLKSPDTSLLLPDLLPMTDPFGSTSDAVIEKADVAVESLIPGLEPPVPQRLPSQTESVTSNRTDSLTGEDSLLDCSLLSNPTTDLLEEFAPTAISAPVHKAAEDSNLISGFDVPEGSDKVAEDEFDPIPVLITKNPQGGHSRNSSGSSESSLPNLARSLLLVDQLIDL

SMILES: NC(=O)c1cccc2cn(-c3ccc([C@@H]4CCCNC4)cc3)nc12 [Niraparib]
- percent of control binding at 10 µM (AAK1; [1]): 83%
- percent of control binding at 10 µM (WEE1; [1]): 100%
- percent of control binding at 10 µM (DAPK2; [1]): 81%
- percent of control binding at 10 µM (PIK3CA; [1]): 100%
- percent of control binding at 10 µM (SGK3; [1]): 98%
- percent of control binding at 10 µM (TRPM6; [1]): 71%
- percent of control binding at 10 µM (FLT4; [1]): 99%
- percent of control binding at 10 µM (STK36; [1]): 88%

SMILES: O=C(c1cc(Cc2n[nH]c(=O)c3ccccc23)ccc1F)N1CCN(C(=O)C2CC2)CC1 [Olaparib]
- percent of control binding at 10 µM (AAK1; [2]): 100%
- percent of control binding at 10 µM (WEE1; [2]): 100%
- percent of control binding at 10 µM (DAPK2; [2]): 100%
- percent of control binding at 10 µM (PIK3CA; [2]): 87%
- percent of control binding at 10 µM (SGK3; [2]): 79%
- percent of control binding at 10 µM (TRPM6; [2]): 84%
- percent of control binding at 10 µM (FLT4; [2]): 97%
- percent of control binding at 10 µM (STK36; [2]): 96%

SMILES: CNCc1ccc(-c2[nH]c3cc(F)cc4c3c2CCNC4=O)cc1 [Rucaparib]
- percent of control binding at 10 µM (AAK1; [3]): 82%
- percent of control binding at 10 µM (WEE1; [3]): 92%
- percent of control binding at 10 µM (DAPK2; [3]): 37%
- percent of control binding at 10 µM (PIK3CA; [3]): 91%
- percent of control binding at 10 µM (SGK3; [3]): 38%
- percent of control binding at 10 µM (TRPM6; [3]): 77%
- percent of control binding at 10 µM (FLT4; [3]): 95%
- percent of control binding at 10 µM (STK36; [3]): 69%

SMILES: Cn1ncnc1[C@H]1c2n[nH]c(=O)c3cc(F)cc(c23)N[C@@H]1c1ccc(F)cc1 [Talazoparib]
- percent of control binding at 10 µM (AAK1; [4]): 93%
- percent of control binding at 10 µM (WEE1; [4]): 100%
- percent of control binding at 10 µM (DAPK2; [4]): 95%
- percent of control binding at 10 µM (PIK3CA; [4]): 59%
- percent of control binding at 10 µM (SGK3; [4]): 100%
- percent of control binding at 10 µM (TRPM6; [4]): 100%
- percent of control binding at 10 µM (FLT4; [4]): 93%
- percent of control binding at 10 µM (STK36; [4]): 56%
